Test results taken from PubChem BioAssay (NCI).
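Five compound concentrations were applied to cells in 96-well plates for 48 hours; endpoints were derived by simple linear interpolation of the resulting dose-response curve. GI50 is the concentration that inhibits growth by half. The concentration for full growth arrest is given as TGI.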

Assays:
Test in all cases: NCI tumour cell line growth inhibition, 48 h
786-0 renal = system: 786-0 renal
MDA-MB-435 = system: MDA-MB-435
MDA-N = system: MDA-N
DMS 273 small cell lung = system: DMS 273 small cell lung
RXF-631 renal = system: RXF-631 renal
P388 leukemia = system: P388 leukemia
P388/ADR leukemia = system: P388/ADR leukemia
SN12K1 renal = system: SN12K1 renal

Row | SMILES | TGI (MDA-MB-435) [µM] | TGI (MDA-N) [µM] | TGI (DMS 273 small cell lung) [µM] | further results
1 | CCCCCCCCCCCCO[P+](=O)OCCCCCCCCCCCC | > 100 | > 100 | – | TGI (786-0 renal): > 100 µM
2 | NC(=O)Oc1ccccc1 | > 100 | > 100 | – | –
3 | C=C(C)[C@@H]1CC[C@]2(C(=O)NC(C)=O)CC[C@]3(C)[C@H](CC[C@@H]4[C@@]5(C)CCCNC(C)(C)[C@@H]5CC[C@]43C)[C@@H]12 | 3.11 | – | – | GI50 (MDA-MB-435): 1.55 µM
4 | CCOC(=O)Cn1c(=O)c(C)cn(COCCO)c1=O | > 100 | > 100 | – | –
5 | O=C(CCC1CCCCN1)Nc1ccc2c(c1)C(=O)c1ccc(NC(=O)CCN3CCCCC3)cc1C2=O (stereo unspecified) | – | – | 7.55 | –
6 | CCN(CC)CCO[Si](OCCN(CC)CC)(OCCN(CC)CC)OCCN(CC)CC | – | – | > 100 | TGI (RXF-631 renal): > 100 µM
7 | CN/N=C(\C(=O)Nc1ccc(C)c(C)c1)C(C(=O)OC)c1nc2ccc([N+](=O)[O-])cc2[nH]c1=O (stereo unspecified) | – | – | > 100 | –
8 | COC(=O)C1c2cc3c(c(O)c2C(O)CC1(C)O)C(=O)c1c(O)cc2c(c1C3=O)OC1OC2(C)C(O)C(N(C)C)C1O (stereo unspecified) | – | 2.91 | > 100 | –
9 | S=c1nc[nH]c2c1ncn2C1CCCO1 (stereo unspecified) | – | – | > 100 | TGI (786-0 renal): > 100 µM
10 | CCOC(C)OC1CC(n2cc(C)c(=O)[nH]c2=O)OC1CO (stereo unspecified) | – | – | > 100 | –
11 | COc1ccc(C2=NC(c3ccc(Cl)cc3)C(c3ccc(Cl)cc3)N2C(=O)N2CCNC(=O)C2)c(OC(C)C)c1 (stereo unspecified) | 3.63 | – | – | GI50 (MDA-MB-435): 1.92 µM
12 | C(=C/c1nc2ccccc2o1)/c1ccc2c(c1)OCO2 | – | – | > 37.5 | TGI (P388 leukemia): > 35.8 µM; TGI (P388/ADR leukemia): > 43.7 µM; TGI (SN12K1 renal): 42 µM
13 | CC1OC(=O)C(C(C)C)NC(=O)C(C(C)C)OC(=O)C(C(C)C)NC(=O)C(C)OC(=O)C(C(C)C)NC(=O)C(C(C)C)OC(=O)C(C(C)C)NC(=O)C(C)OC(=O)C(C(C)C)NC(=O)C(C(C)C)OC(=O)C(C(C)C)NC1=O (stereo unspecified) | – | – | 0.0141 | TGI (P388 leukemia): 0.25 µM; TGI (P388/ADR leukemia): 0.0325 µM; TGI (SN12K1 renal): 0.816 µM
14 | NS(=O)(=O)c1ccc(N=Nc2ccc(O)c(C(=O)O)c2)cc1 | > 100 | > 100 | – | TGI (786-0 renal): > 100 µM
